# Experimental data: patent publication US20070172471A1, “Method for identifying an anti- streptococcal agent and its use for treating streptococcal infections” (Hansa Medical AB, priority 2003, published 2007)
# Peptide text beside a SMILES is read from it.
# T1: fibrinogen (Homo sapiens, UniProt P02671+P02675+P02679)
# T1 sequence (P02671 20-644 isoform P02671-2 limits assumed): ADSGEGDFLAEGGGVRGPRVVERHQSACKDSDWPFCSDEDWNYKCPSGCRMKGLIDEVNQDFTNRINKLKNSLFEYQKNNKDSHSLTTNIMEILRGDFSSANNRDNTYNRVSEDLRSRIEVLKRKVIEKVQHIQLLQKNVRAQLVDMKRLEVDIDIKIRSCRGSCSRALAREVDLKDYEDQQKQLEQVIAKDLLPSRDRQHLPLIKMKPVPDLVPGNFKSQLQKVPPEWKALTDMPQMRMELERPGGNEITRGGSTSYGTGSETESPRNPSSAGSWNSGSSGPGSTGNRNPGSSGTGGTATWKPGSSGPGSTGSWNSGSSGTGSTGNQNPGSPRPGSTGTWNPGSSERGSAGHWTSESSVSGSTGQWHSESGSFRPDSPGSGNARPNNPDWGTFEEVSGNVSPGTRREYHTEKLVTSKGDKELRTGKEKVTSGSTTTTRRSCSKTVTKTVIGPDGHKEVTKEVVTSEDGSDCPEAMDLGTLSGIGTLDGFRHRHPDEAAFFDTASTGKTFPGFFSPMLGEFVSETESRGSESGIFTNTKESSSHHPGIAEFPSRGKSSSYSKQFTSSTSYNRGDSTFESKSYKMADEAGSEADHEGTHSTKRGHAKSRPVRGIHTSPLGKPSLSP
# T1 sequence (P02675 31-491): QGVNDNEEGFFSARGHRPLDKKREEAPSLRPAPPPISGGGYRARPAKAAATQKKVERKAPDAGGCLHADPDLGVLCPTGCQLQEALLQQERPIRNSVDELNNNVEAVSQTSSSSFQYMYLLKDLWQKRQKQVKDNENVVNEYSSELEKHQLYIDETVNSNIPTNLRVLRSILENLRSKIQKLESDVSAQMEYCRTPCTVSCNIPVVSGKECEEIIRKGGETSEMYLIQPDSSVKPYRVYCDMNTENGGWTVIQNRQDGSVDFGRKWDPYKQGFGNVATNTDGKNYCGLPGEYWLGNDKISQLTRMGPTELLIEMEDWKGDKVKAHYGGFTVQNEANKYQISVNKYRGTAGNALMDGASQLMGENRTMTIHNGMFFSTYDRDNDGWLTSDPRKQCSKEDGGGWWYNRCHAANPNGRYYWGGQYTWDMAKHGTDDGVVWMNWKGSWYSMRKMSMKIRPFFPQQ
# T1 sequence (P02679 27-453): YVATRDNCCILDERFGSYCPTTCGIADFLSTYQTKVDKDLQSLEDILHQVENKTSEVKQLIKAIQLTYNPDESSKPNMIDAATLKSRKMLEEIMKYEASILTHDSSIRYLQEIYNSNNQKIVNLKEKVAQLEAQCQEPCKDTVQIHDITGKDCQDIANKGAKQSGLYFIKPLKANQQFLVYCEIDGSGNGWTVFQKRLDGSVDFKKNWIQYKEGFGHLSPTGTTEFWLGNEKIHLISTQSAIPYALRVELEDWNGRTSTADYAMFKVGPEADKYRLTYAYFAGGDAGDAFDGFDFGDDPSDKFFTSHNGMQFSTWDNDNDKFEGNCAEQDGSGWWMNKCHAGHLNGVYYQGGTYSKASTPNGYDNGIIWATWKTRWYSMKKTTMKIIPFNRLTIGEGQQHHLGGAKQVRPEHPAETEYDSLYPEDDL
# B1: Protein H (IgG-binding surface protein of S. pyogenes AP1), recombinant from E. coli (other)
# chain: EGAKIDWQEEYKKLDEDNAKLVEVVETTSLENEKLKSENEENKKNLDKLSKENQGKLEKLELDYLKKLDHEHKEHQKEQQEQEERQKNQEQLERKYQREVEKRYQEQLQKQQQLETEKQISEASRKSLSRDLEASRAAKKDLEAEHQKLEAEHQKLKEDKQISDASRQGLSRDLEASRAAKKELEANHQKLEAEHQKLKEDKQISDASRQGLSRDLEASRAAKKELEANHQKLEAEAKALKEQLAKQAEELAKLRAGKASDSQTPDTKPGNKAVPGKGQAPQAGTKPNQNKAPMKETKRQLPST
# notes: also called purified protein H
# B2: protein H: IgG-binding surface protein of AP1 bacteria, closely related to M1 protein, does not bind fibrinogen (protein)
# chain: B1 chain
# How the values were obtained:
# [1] = system: M1 protein-induced release of HBP from PMNs in human blood; conditions: M1 protein 1 μg/ml, 30 min 37° C., FIG. 2 and FIG. 5B
# Description: (§1) HBP release. 100 μl human blood were diluted in PBS to a final volume of 1.0 ml and incubated with various PMNs-activating components for 30 min at 37° C. Cells were centrifuged (300×g for 15 min) and the supernatant was analyzed by sandwich ELISA. In order to quantify the total amount of HBP in blood, cells were lysed with 0.02% (v/v) Triton X-100, and pelleted as described above.
# [2] = system: mice of the C57BL/6 strain; conditions: for breathing of mice: thirty minutes after i.v. M1 protein 15 μg/animal, alone or plus peptide 400 μg/animal; for lung damage after injection of the protein alone, scanning electron microscopy / lung lesions after injection of the protein alone, light microscopy: i.v., M1 protein 15 μg/animal, 30 min
# [3] = system: PMNs in human blood; test: HBP release in human blood by streptococcal and other PMN-activating components; format: cell-based; conditions: for release of HBP: added to human blood, HBP in supernatant by ELISA, FIG. 1
# Description: as §1
# [4] = biological target: T1, fibrinogen; test: Fibrinogen binding on Western blot; conditions: literature statement, demonstrated in the applicant's blot probed with fibrinogen 2 μg/ml
# Description: SDS-polyacrylamide gel electrophoresis, Western blotting, and immunoprinting. Proteins were separated by 12.5% (w/v) polyacrylamide gel electrophoresis in the presence of 1% (w/v) SDS (Laemmli, 1970, Nature, 227, 680-685). Molecular weight markers were from Sigma Chemical Co. (St. Louis, Mo.). The resolved proteins were visualized by the silver stain technique. Proteins were also transferred onto nitrocellulose membranes for 30 min at 100 mA (Khyse-Andersen, 1984, J. Biochem. Biophys. Methods, 10, 203-209). The membranes were blocked with PBS containing 5% (w/v) dry milk powder and 0.05% (w/v) Tween-20, pH 7.4. Immunoprinting of the transferred proteins was done according to Towbin et al. (Towbin et al., 1979, Proc. Natl. Acad. Sci. USA, 76, 4350-4354). Polyclonal antibodies against M1 protein, diluted 1:50000 in the blocking buffer, was used. Bound antibodies were detected using a peroxidase-conjugated secondary antibodies against rabbit IgG (dilution 1:3000) followed by a chemiluminescence detection method. Alternatively, membranes were blocked, incubated with fibrinogen (2 μg/ml) followed by immunodetection with antibodies to fibrinogen (1:1000) and peroxidase-conjugated secondary antibodies against rabbit immunoglobulin (1:3000 diluted).
# [5] = biological target: T2, Fibrinogen (human, UniProt P02671 20-630; P02675 31-491; P02679 27-453); test: ligand blot: SDS-PAGE, transfer to nitrocellulose, probed with fibrinogen, immunodetection of bound fibrinogen
# T2 construct: also called human fibrinogen; purified fibrinogen
Molecule,effect on M1 protein-induced release of HBP [1],release of HBP ([3]; 30 min 37° C.),also measured
COc1cc2ncnc(Nc3cccc(Cl)c3)c2cc1OC [AG1478],did not interfere with the secretion of HBP,,
O=C(O)CN(CCOCCOCCN(CC(=O)O)CC(=O)O)CC(=O)O [EGTA],blocked HBP release,,
CN(C)CCCn1cc(C2=C(c3c[nH]c4ccccc34)C(=O)NC2=O)c2ccccc21 [GF109203],did not interfere with the secretion of HBP,,
N=C(N)NCCC[C@H](NC(=O)[C@H](Cc1c[nH]cn1)NC(=O)CN)C(=O)N1CCC[C@H]1C(=O)O [Gly-His-Arg-Pro] (H-GHRP-OH),,,breathing of mice [2]: clearly affected
O=S(=O)(NCCNC/C=C/c1ccc(Br)cc1)c1cccc2cnccc12 [H-89],did not interfere with the secretion of HBP,,
COc1cccc(-c2cc(=O)c3ccccc3o2)c1N [PD98059],did not interfere with the secretion of HBP,,
COc1ccc2c(c1)CC[C@@H]1[C@@H]2CC[C@]2(C)[C@@H](NCCCCCCN3C(=O)C=CC3=O)CC[C@@H]12 [U-73122],did not interfere with the secretion of HBP,,
"CSCC[C@H](NC=O)C(=O)N[C@@H](CC(C)C)C(=O)N[C@@H](Cc1ccccc1)C(=O)O [fMLP, formyl-methionyl-leucyl-phenylalanine]",,evoked secretion of HBP,
O=c1c(-c2ccc(O)cc2)coc2cc(O)cc(O)c12 [genistein],blocked the release of HBP almost completely,,
M1 protein: recombinant M1 protein of Streptococcus pyogenes expressed in E. coli (SEQ ID NO: 1),,,"HBP stored in PMNs mobilized ([3]; M1 protein final concentration 1 μg/ml, human whole blood, 30 min 37° C., FIG. 1A): about 63%; M1 protein concentration of maximal release of HBP from PMNs ([3]; blood diluted 1/10, FIG. 3B): 1 µg/mL; binding of fibrinogen [4]: binds fibrinogen with high affinity; ratio of lung area containing protein aggregates versus total lung area ([2]; M1 protein alone i.v., six lung sections per animal, electron microscopy): 90±2%; lung damage after injection of the protein alone, scanning electron microscopy [2]: severe leakage of erythrocytes; lung lesions after injection of the protein alone, light microscopy [2]: severe hemorrhage and tissue destruction; breathing of mice [2]: clearly affected"
SpeB: streptococcal cysteine proteinase,,did not induce HBP release,
hyaluronic acid,,did not induce HBP release,
lipoteichoic acid,,evoked secretion of HBP,
pertussis toxin,none of the two components inhibited the release of HBP,,
B1,,,binding result [5]: no binding
B2,,Only minute amounts,"binding of fibrinogen [4]: shows no interaction with fibrinogen; lung damage after injection of the protein alone, scanning electron microscopy [2]: did neither cause serious bleeding; lung lesions after injection of the protein alone, light microscopy [2]: no hemorrhage"
